The structures appear in SMILES notation.

The target in assay [1] is human EGFR kinase domain (Homo sapiens (Human), UniProt P00533). The assay is described as follows: Human EGFR LanthaScreen Selectivity Assay (TR-FRET). It counts as biochemical. Particulars: 20 μM ATP, 600 pM EGFR kinase domain; run with and without 60 minutes pre-incubation.
Procedure: The kinase reaction mixtures were incubated at room temperature for 60 minutes before stopping the kinase activity by the addition of 15 mM EDTA. The extent of peptide phosphorylation by EGFR was detected using a Terbium-conjugated anti-phospho-Tyrosine antibody (Tb-PT66 antibody, Invitrogen # PV3557).
The target in assay [2] is human full-length BTK Kinase (Homo sapiens (Human), UniProt Q06187). Nature of the assay: Human BTK LanthaScreen Assay (TR-FRET). It counts as biochemical. Particulars: 50 μM ATP, 70 pM BTK, 100 nM FAM-Srctide; run with and without 60 minutes pre-incubation (table does not say which); read-out: BTK Inhibition IC50.
Sequence of human full-length BTK Kinase (Q06187 whole entry): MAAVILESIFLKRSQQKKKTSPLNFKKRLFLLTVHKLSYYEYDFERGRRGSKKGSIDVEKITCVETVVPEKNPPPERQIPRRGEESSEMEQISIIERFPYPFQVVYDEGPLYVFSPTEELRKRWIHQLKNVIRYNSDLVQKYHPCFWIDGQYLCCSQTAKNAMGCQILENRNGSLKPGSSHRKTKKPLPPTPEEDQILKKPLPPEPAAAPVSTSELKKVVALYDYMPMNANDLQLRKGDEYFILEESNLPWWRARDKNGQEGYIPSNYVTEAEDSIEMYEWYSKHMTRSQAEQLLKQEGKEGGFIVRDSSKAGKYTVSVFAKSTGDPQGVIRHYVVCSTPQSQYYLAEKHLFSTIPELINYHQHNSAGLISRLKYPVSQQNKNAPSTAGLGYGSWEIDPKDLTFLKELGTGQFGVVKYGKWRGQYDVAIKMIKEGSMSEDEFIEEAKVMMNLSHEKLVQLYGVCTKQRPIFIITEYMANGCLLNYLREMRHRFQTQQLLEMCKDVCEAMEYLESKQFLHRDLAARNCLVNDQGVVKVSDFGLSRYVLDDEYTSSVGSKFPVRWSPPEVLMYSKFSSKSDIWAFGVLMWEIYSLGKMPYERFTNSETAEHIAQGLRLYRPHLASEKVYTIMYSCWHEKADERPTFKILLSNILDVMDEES
The test system of assay [3] is Human B cells. Nature of the assay: Human Primary B Cell Proliferation Assay. Type of assay: cell-based. The settings on record: 50 μg/mL anti-human IgM F(ab')2 for 72 hours, 3H-thymidine incorporation. Here is the method:
Human B cells were purified from buffy coats using the human B cell RosetteSep kit per manufacturer's instructions. Purified cells were resuspended in RPMI-10% HIFCS, 2 mM L-glutamine, 100 U/mL penicillin, 100 μg/ml streptomycin, incubated with compounds for 1 hour at 37° C. and then stimulated with 50 μg/mL anti-human IgM F(ab′)2 for 72 hours. ^3H-thymidine was included in the culture media for the final 8-16 hours. Cells were harvested and ^3H-thymidine incorporation was measured.
(Uptake of a labelled nucleoside into DNA is a usual measure of proliferation.)

Sequence of human EGFR kinase domain (P00533 712-979): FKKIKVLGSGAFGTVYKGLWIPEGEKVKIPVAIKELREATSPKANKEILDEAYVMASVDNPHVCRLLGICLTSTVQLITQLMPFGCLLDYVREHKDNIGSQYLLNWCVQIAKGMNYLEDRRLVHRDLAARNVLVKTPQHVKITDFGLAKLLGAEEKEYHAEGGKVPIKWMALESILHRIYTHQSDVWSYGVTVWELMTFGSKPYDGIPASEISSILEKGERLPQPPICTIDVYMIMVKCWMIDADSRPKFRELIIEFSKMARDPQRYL

Turning to `NC(=O)c1c(-c2ccc(Oc3ccc(Cl)cc3)cc2)nn([C@@H]2CCCN(C(=O)/C=C/CO)C2)c1N` [Example 131, 5-amino-3-[4-(4-chlorophenoxy)phenyl]-1-{(3R)-1-[(2E)-4-hydroxybut-2-enoyl]piperidin-3-yl}-1H-pyrazole-4-carboxamide], the IC50 (usually the midpoint of a concentration-inhibition curve) in assay [1] worked out at 2200 nM; in assay [2] it was 2.3 nM.
With `NC(=O)c1c(-c2ccc(Oc3ccc(Cl)cc3)cc2)nn([C@@H]2CCCN(C(=O)/C=C/CF)C2)c1N` [Example 132, 5-amino-3-[4-(4-chlorophenoxy)phenyl]-1-{(3R)-1-[(2E)-4-fluorobut-2-enoyl]piperidin-3-yl}-1H-pyrazole-4-carboxamide], in assay [2], the IC50 is 1.1 nM.
For the molecule `NC(=O)c1c(-c2ccc(Oc3ccc(F)cc3F)cc2)nn([C@@H]2CCCN(C(=O)/C=C/CF)C2)c1N` [Example 145, 5-amino-3-[4-(2,4-difluorophenoxy)phenyl]-1-{(3R)-1-[(2E)-4-fluorobut-2-enoyl]piperidin-3-yl}-1H-pyrazole-4-carboxamide], the values for the IC50 in assay [1] and in assay [2] were 2180 nM and 2.8 nM, respectively.
`NC(=O)c1c(-c2ccc(Oc3ccc(F)cc3F)cc2)nn([C@@H]2CCCN(C(=O)/C(F)=C/CO)C2)c1N` [Example 146, 5-amino-3-[4-(2,4-difluorophenoxy)phenyl]-1-{(3R)-1-[(2Z)-2-fluoro-4-hydroxybut-2-enoyl]piperidin-3-yl}-1H-pyrazole-4-carboxamide]: in assay [2], the IC50 was found to be 48 nM.
As for `CC(C)(O)/C=C/C(=O)N1CCC[C@@H](n2nc(-c3ccc(Oc4ccc(F)cc4F)cc3)c(C(N)=O)c2N)C1` [Example 147, 5-amino-3-[4-(2,4-difluorophenoxy)phenyl]-1-{(3R)-1-[(2E)-4-hydroxy-4-methylpent-2-enoyl]piperidin-3-yl}-1H-pyrazole-4-carboxamide], the half-inhibitory concentration (IC50) in assay [2] stood at 241 nM.
On the same count and under the same terms, the same measure for `C[C@H](O)/C=C/C(=O)N1CCC[C@@H](n2nc(-c3ccc(Oc4ccc(F)cc4F)cc3)c(C(N)=O)c2N)C1` [Example 148, 5-amino-3-[4-(2,4-difluorophenoxy)phenyl]-1-{(3R)-1-[(2E,4S)-4-hydroxypent-2-enoyl]piperidin-3-yl}-1H-pyrazole-4-carboxamide]: 39 nM; for `C[C@@H](O)/C=C/C(=O)N1CCC[C@@H](n2nc(-c3ccc(Oc4ccc(F)cc4F)cc3)c(C(N)=O)c2N)C1` [Example 149, 5-amino-3-(4-(2,4-difluorophenoxy)phenyl)-1-((R)-1-((R,E)-4-hydroxypent-2-enoyl)piperidin-3-yl)-1H-pyrazole-4-carboxamide]: 52 nM.
As for `NC(=O)c1c(-c2ccc(Oc3ccc(F)cc3F)cc2)nn([C@@H]2CCCN(C(=O)/C=C/CO)C2)c1N` [Example 151, 5-amino-3-[4-(2,4-difluorophenoxy)phenyl]-1-{(3R)-1-[(2E)-4-hydroxybut-2-enoyl]-piperidin-3-yl}-1H-pyrazole-4-carboxamide], the IC50 turned out to be 12100 nM in assay [1] and 2.3 nM in assay [2].
In the case of `N#C/C=C/C(=O)N1CCC[C@@H](n2nc(-c3ccc(Oc4ccc(F)cc4F)cc3)c(C(N)=O)c2N)C1` [Example 152, 5-amino-1-{(3R)-1-[(2E)-3-cyanoprop-2-enoyl]piperidin-3-yl}-3-[4-(2,4-difluorophenoxy)phenyl]-1H-pyrazole-4-carboxamide], the IC50 in assay [2] is 1.5 nM.
As for `NC(=O)c1c(-c2ccc(Oc3ncc(Cl)cc3F)cc2)nn([C@@H]2CCCN(C(=O)/C=C/CO)C2)c1N` [Example 154, 5-amino-3-{4-[(5-chloro-3-fluoropyridin-2-yl)oxy]phenyl}-1-{(3R)-1-[(2E)-4-hydroxybut-2-enoyl]piperidin-3-yl}-1H-pyrazole-4-carboxamide], in assay [2], the IC50 came out at 49 nM.
Turning to `NC(=O)c1c(-c2ccc(Oc3ncc(Cl)cc3F)cc2)nn([C@@H]2CCCN(C(=O)/C=C/C(F)F)C2)c1N` [Example 155, 5-amino-3-{4-[(5-chloro-3-fluoropyridin-2-yl)oxy]phenyl}-1-{(3R)-1-[(2E)-4,4-difluorobut-2-enoyl]piperidin-3-yl}-1H-pyrazole-4-carboxamide], the concentration for half-maximal inhibition (IC50) in assay [1] is 106 nM; in assay [3] it was 2 nM; in assay [2] it was 0.7 nM.
On to `NC(=O)c1c(-c2ccc(Oc3ncc(Cl)cc3F)cc2)nn([C@@H]2CCCN(C(=O)/C=C/CF)C2)c1N` [Example 156, 5-amino-3-{4-[(5-chloro-3-fluoropyridin-2-yl)oxy]phenyl}-1-{(3R)-1-[(2E)-4-fluorobut-2-enoyl]piperidin-3-yl}-1H-pyrazole-4-carboxamide], for which the IC50 was found to be 381 nM in assay [1] and 1.4 nM in assay [2].

The values above are taken from US10815213B2, “Bruton's tyrosine kinase inhibitors” (Pfizer Inc., priority 2013, dated 2020).
